According to patent US4798844A, “Chemotherapeutant composition” (Shikoku Chemicals Corporation, priority 1987, dated 1989):
Structures can show the parent of a compound that is named as a salt.

Columns and labels:
skin = assay: Primary irritation to skin; assay type: in vivo, rabbit
Source text: It is seen that the compound is a non-irritating substance.

Aspergillus fumigatus = assay: Antimicrobial activity to pathogenic true fungi (MIC); assay type: cell-based; details: Sabourauds agar medium, 25° C., 7 to 14 days
Procedure: (§1) A true fungus shown in Table 1 was cultured in Sabourauds agar medium at 25° C. for 7 to 14 days, and the minimum inhibitory concentration (MIC value, μg/ml) was determined.

Trichophyton tonsurans = assay: as above; assay type: cell-based; details: Sabourauds agar medium, 25° C., 7 to 14 days
Procedure: as §1

[1] = system: Trichophyton mentagrophytes; assay: as above; assay type: cell-based; details: Sabourauds agar medium, 25° C., 7 to 14 days
Procedure: as §1

Microsporum gypseum = assay: as above; assay type: cell-based; details: Nannizzia gypsea; Sabourauds agar medium, 25° C., 7 to 14 days
Procedure: as §1

Trichophyton rubrum = assay: as above; assay type: cell-based; details: Sabourauds agar medium, 25° C., 7 to 14 days
Procedure: as §1

Candida albicans [2] = assay: as above; assay type: cell-based; details: Sabourauds agar medium, 25° C., 7 to 14 days
Procedure: as §1

Aspergillus niger = assay: as above; assay type: cell-based; details: Sabourauds agar medium, 25° C., 7 to 14 days
Procedure: as §1

[3] = Migration in blood after oral administration; assay type: in vivo; details: rat, oral 300 mg/kg; for Concentration in Blood: gum arabic suspension, compound bonded with small blood protein (fraction MW 10,000)
Procedure: The compound obtained in Example 1 was orally administered at a dose of 300 mg/kg in the form of a suspension in gum arabic to a rat, and the change of the concentration in blood was examined by the high-speed liquid chromatography.
Each value is the concentration of the compound bonded with a blood protein having a small molecular weight (fraction molecular weight=10,000).

[4] = system: Trichophyton mentagrophytes; assay: Curative effect to trichophytosis; assay type: in vivo, guinea pig; details: for Number of Colonies in Skin Pieces after 3 days' stoppage of administration: 10 days, then 3 days stopped, control 3.4 × 10^3; for Number of Colonies in Skin Pieces after 10 days' administration: control 4.1 × 10^3
Source text: A guinea pig was skin-infected with Trichophyton mentagrophytes, and after two days had passed from the infection, the compound obtained in Example 1 was orally administered in the form of a suspension in gum arabic once a day for 10 days and the pharmaceutical effect was examined. Then, the administraion of the compound was stopped for 3 days and the recovery state was examined.

mouse = assay: Acute toxicity (oral LD50); assay type: in vivo
Source text: (§2) It is seen that the actue toxicity of the compound is very low.

[5] = Acute toxicity (oral LD50); assay type: in vivo; details: mouse, in vivo, po, LD50 Value
Source text: as §2

Candida albicans [6] = assay: Curative effect to candidiasis; assay type: in vivo, mouse; details: after two days; for Survival Ratio: 1.4 hours after infection, control 0/3
Procedure: A mouse was infected with Candida albicans, and when 1.4 hours had passed from the infection, the compound obtained in Example 1 was orally administered in the form of a suspension in gum arabic. After two days, the pharmaceutical effect was examined.

Streptococcus pyogenes = assay: Antimicrobial activity to pathogenic bacteria (MIC, agar plate dilution); assay type: cell-based; details: Japanese Chemotherapeutic Association
Procedure: (§3) The minimum inhibitory concentrations to pathogenic bacteria shown in Table 2 were determined by the agar plate dilution process according to the standard method of the Japanese Chemotherapeutic Association.

Staphylococcus aureus = assay: as above; assay type: cell-based; details: Japanese Chemotherapeutic Association
Procedure: as §3

Bacillus subtilis = assay: as above; assay type: cell-based; details: Japanese Chemotherapeutic Association
Procedure: as §3

Streptococcus faecalis = assay: as above; assay type: cell-based; details: Enterococcus faecalis, Japanese Chemotherapeutic Association
Procedure: as §3

## O=C(C(=Cc1ccc(Cl)cc1Cl)n1ccnc1)c1ccc(Cl)cc1 [Example 1, 1-(4-chlorophenyl)-2-(1H-imidazolyl)-3-(2,4-dichlorophenyl)-2-propen-1-onehydrochloride]
skin; in words
  primary irritation to skin: non-irritating
skin; rabbit, coating concentration 100%
  Primary Irritation Ratio: 0.72
Aspergillus fumigatus
  MIC: 3.12 µg/mL
Trichophyton tonsurans
  MIC: < 1.25 µg/mL
[1]
  MIC: < 1.25 µg/mL
Microsporum gypseum
  MIC: < 1.25 µg/mL
Trichophyton rubrum
  MIC: < 1.25 µg/mL
Candida albicans [2]
  MIC: < 6.25 µg/mL
Aspergillus niger
  MIC: 3.12 µg/mL
[3]; 0 hours
  Concentration in Blood: 0 ng/mL
[3]; 2 hours
  Concentration in Blood: 1200 ng/mL
[3]; 4 hours
  Concentration in Blood: 2970 ng/mL
[3]; 6 hours
  Concentration in Blood: 9070 ng/mL
[3]; 8 hours
  Concentration in Blood: 4260 ng/mL
[3]; 12 hours
  Concentration in Blood: 5620 ng/mL
[3]; 24 hours
  Concentration in Blood: 1500 ng/mL
[3]; suspension in gum arabic
  time to maximum concentration in blood: within several hours
[4]; 50 mg/kg oral once a day
  Number of Colonies in Skin Pieces after 3 days' stoppage of administration: annihilated
  Number of Colonies in Skin Pieces after 10 days' administration: annihilated
[4]; 100 mg/kg oral once a day
  Number of Colonies in Skin Pieces after 3 days' stoppage of administration: annihilated
  Number of Colonies in Skin Pieces after 10 days' administration: annihilated
mouse; in vivo, po
  LD50 Value: 3100 mg/kg
mouse; oral, in words
  acute toxicity: very low
[5]
  LD50: 2950 mg/kg
Candida albicans [6]; 50 mg/kg oral
  Survival Ratio: 1/3
  Number of Living Cells in Kidney of Survivor Mouse: substantially annihilated
Candida albicans [6]; 100 mg/kg oral
  Survival Ratio: 2/3
Streptococcus pyogenes
  MIC: 3.12 µg/mL
Staphylococcus aureus
  MIC: 1.56 µg/mL
Bacillus subtilis
  MIC: 3.12 µg/mL
Streptococcus faecalis
  MIC: 3.12 µg/mL
